24 compounds from publication PMC7897990, “TriTOX: A novel Trichomonas vaginalis assay platform for high-throughput screening of compound libraries” (International Journal for Parasitology: Drugs and Drug …, 2021) can be followed below.

Structures can show the parent of a compound that is named as a salt. Where two headings read alike, the source gives them in different places.

Data set [1] deals with Trichomonas vaginalis G3 trophozoites. In words: microbe, parasite or virus in culture. The note with it: 48 h.
Data set [2] has the same test system.
Data set [3] concerns nontumorigenic neonatal foreskin fibroblast (NFF) cell line.
[4] abbreviates: read-out: T.vaginalis_%inb_Rep1.
Where [5] appears, read: read-out: T.vaginalis_%inb_Rep2.
Where [6] appears, read: replicate 1, parasite screen at 1 µg/mL.
The mark [7] stands for this setting: replicate 2, parasite screen at 1 µg/mL.
Where [8] appears, read: HTS single concentration, parasite screen 1 µg/mL, replicate 1.
[9] abbreviates: HTS single concentration, parasite screen 1 µg/mL, replicate 2.
Setting [10] is: NFF_NS1 screen 5 µg/mL, single concentration.

As for `COc1c(C)c2c(c(O)c1C/C=C(\C)CCC(=O)O)C(=O)OC2` [Mycophenolic acid], the inhibition of growth at 1 µg/mL in data set [1] (setting [4]) was found to be 12.2%; in data set [1] (setting [5]), 14.1%.

On to `O=C(O)c1ccc[nH]1` [Pyrrole-2-carboxylic acid], for which the inhibition of growth at 1 µg/mL in data set [1] (setting [4]) was found to be 17.3%; in data set [1] (setting [5]) it was 11.6%.

For the compound `C[C@@H]1C/C=C/C=C/C=C/C=C/[C@H](O[C@@H]2O[C@H](C)[C@@H](O)[C@H](N)[C@@H]2O)C[C@@H]2O[C@](O)(C[C@@H](O)C[C@H]3O[C@@H]3/C=C/C(=O)O1)C[C@H](O)[C@H]2C(=O)O` [Pimaricin], the figures for the inhibition of growth at 1 µg/mL in data set [1] (setting [4]) and in data set [1] (setting [5]) were 10.4% and 13.7%, respectively.

`CC[C@H]1OC(=O)C[C@@H](O)[C@H](C)[C@@H](O[C@@H]2O[C@H](C)[C@@H](O[C@H]3C[C@@](C)(O)[C@@H](O)[C@H](C)O3)[C@H](N(C)C)[C@H]2O)[C@@H](CC=O)C[C@@H](C)C(=O)/C=C/C(C)=C/[C@@H]1CO[C@@H]1O[C@H](C)[C@@H](O)[C@@H](OC)[C@H]1OC` [Tylosin]: the inhibition of growth at 1 µg/mL came out at 9.02% in data set [1] (setting [4]) and 5.48% in data set [1] (setting [5]).

Turning to `CC[C@H]1OC(=O)C[C@@H](O)[C@H](C)[C@@H](O[C@@H]2O[C@H](C)[C@@H](O)[C@H](N(C)C)[C@H]2O)[C@@H](CCN2CCCCC2)C[C@@H](C)C(=O)/C=C/C(C)=C/[C@@H]1CN1CCCCC1` [Tildipirosin], the inhibition of growth at 1 µg/mL in data set [1] (setting [4]) turned out to be 7.13%; in data set [1] (setting [5]) it was 12.7%.

In the case of `COc1ccc(C[C@H](N)C(=O)N[C@H]2[C@@H](O)[C@H](n3cnc4c(N(C)C)ncnc43)O[C@@H]2CO)cc1` [Puromycin], the inhibition of growth at 1 µg/mL in data set [1] (setting [4]) worked out at 12%; in data set [1] (setting [5]), 10.7%.

For `O=C1NC(c2c[nH]c3ccc(O)cc23)=C/C1=C1\C(=O)Nc2ccccc21` [Violacein], the inhibition of growth at 1 µg/mL was determined as 11.2% in data set [1] (setting [4]) and 11.8% in data set [1] (setting [5]).

`CO[C@@H]1[C@@H](OC(N)=O)[C@@H](O)[C@H](Oc2ccc3c(O)c(NC(=O)c4ccc(O)c(CC=C(C)C)c4)c(=O)oc3c2C)OC1(C)C` [Novobiocin]: the inhibition of growth at 1 µg/mL in data set [1] (setting [4]) amounted to 4.51%; in data set [1] (setting [5]) it was 4.68%.

As to `CO[C@@H]1C[C@@H](C[C@H]2CC[C@H](C)[C@H]([C@@H](C)C(=O)O)O2)O[C@]2(O[C@](C)([C@H]3CC[C@@](C)([C@@H]4O[C@@H]([C@H]5O[C@@](O)(CO)[C@H](C)C[C@@H]5C)C[C@@H]4C)O3)C[C@H]2C)[C@@H]1C` [Nigericin], the results for the inhibition of growth at 1 µg/mL in data set [1] (setting [4]) and in data set [1] (setting [5]) were 6.59% and 6.22%, respectively.

For `Cc1cc(O)cc(O)c1C(=O)O` [Orsellinic acid], the inhibition of growth at 1 µg/mL stood at 12.5% in data set [1] (setting [4]) and 14.9% in data set [1] (setting [5]).

For the compound `CC[C@@]1([C@@H]2O[C@@H]([C@H]3O[C@@](O)(CO)[C@H](C)C[C@@H]3C)C[C@@H]2C)CC[C@H]([C@]2(C)CC[C@]3(C[C@H](O)[C@@H](C)[C@@H]([C@@H](C)[C@@H](OC)[C@H](C)C(=O)O)O3)O2)O1` [Monensin A], the inhibition of growth at 1 µg/mL in data set [1] (setting [4]) was found to be 12.4%; in data set [1] (setting [5]), 16.1%.

As to `CC[C@@H](C(=O)O)[C@@H]1O[C@@H]([C@@H](C)[C@H](O)[C@H](C)C(=O)[C@H](CC)[C@H]2O[C@]3(C=C[C@@H](O)[C@]4(CC[C@@](C)([C@H]5CC[C@](O)(CC)[C@H](C)O5)O4)O3)[C@H](C)C[C@@H]2C)[C@@H](C)C[C@@H]1C` [Narasin], the inhibition of growth at 1 µg/mL in data set [1] (setting [4]) is 6.14%; in data set [1] (setting [5]) it was 4.3%.

For the compound `CO[C@H]1C[C@H](O[C@H]2[C@H](C)[C@@H](O[C@@H]3O[C@H](C)C[C@H](N(C)C)[C@H]3O)[C@@H](C)C[C@@]3(CO3)C(=O)[C@H](C)[C@@H](O)[C@@H](C)[C@@H](C)OC(=O)[C@@H]2C)O[C@@H](C)[C@@H]1O` [Oleandomycin], the inhibition of growth at 1 µg/mL in data set [1] (setting [4]) worked out at 13.2%; in data set [1] (setting [5]), 4.75%.

Take `C/C(=C\C(=O)OCCCCCCCCC(=O)O)C[C@@H]1OC[C@H](C[C@@H]2O[C@H]2[C@@H](C)[C@H](C)O)[C@@H](O)[C@H]1O` [Pseudomonic acid]: the values for the inhibition of growth at 1 µg/mL in data set [1] (setting [4]) and in data set [1] (setting [5]) were 11.5% and 11.7%, respectively.

As to `O=C(O)/C=C/c1c[nH]cn1` [Urocanic acid], the inhibition of growth at 1 µg/mL in data set [1] (setting [4]) is 8.39%; in data set [1] (setting [5]), 13.2%.

Turning to `C=CC(C)(C)[C@@]12C[C@H]3C(=O)N[C@H](CC(C)C)C(=O)N3[C@H]1N(C(C)=O)c1ccccc12` [Verrucofortine], the values for the inhibition of growth at 1 µg/mL in data set [1] (setting [4]) and in data set [1] (setting [5]) were 7.92% and 9.69%, respectively.

On to `CN(C)[C@H]1C(O)=C(C(N)=O)C(=O)[C@@]2(O)C(O)=C3C(=O)c4c(O)cccc4[C@@](C)(O)[C@H]3C[C@@H]12` [Epitetracycline hydrochloride], for which the inhibition of growth at 1 µg/mL in data set [1] (setting [4]) was 11%; in data set [1] (setting [5]), 4.41%.

Consider `OC[C@H]1O[C@@H](n2cnc3c2NC=NC[C@H]3O)C[C@@H]1O` [Pentostatin], for which the inhibition of growth at 1 µg/mL was found to be 12.7% in data set [1] (setting [4]) and 15.8% in data set [1] (setting [5]).

On to `CC[C@H](C)[C@H]1O[C@]2(CC[C@@H]1C)C[C@@H]1C[C@@H](C/C=C(\C)[C@@H](O[C@H]3C[C@H](OC)[C@@H](O[C@H]4C[C@H](OC)[C@@H](O)[C@H](C)O4)[C@H](C)O3)[C@@H](C)/C=C/C=C3\CO[C@@H]4[C@H](O)C(C)=C[C@@H](C(=O)O1)[C@]34O)O2` [BIA-I1119], for which the T.vaginalis_%inb_Rep1 in data set [2] (setting [6]) came to 13.79%. For the same compound, in data set [2] (setting [7]), the T.vaginalis_%inb_Rep2 stood at 12.96%. The NFF_Activity entry in data set [3] (NFF cells, screen at 5 µg/mL) is “I (otherwise these were reported as inactive (I))”.

Compound `CN1CCC2(c3cccc4c3NC3N(C)CCC43C34CCN(C)C3Nc3ccccc34)c3ccccc3NC12` (stereo not drawn) [BIA-H1941] yielded a T.vaginalis_%inb_Rep1 in data set [2] (setting [6]) of 7.39%. Also, the T.vaginalis_%inb_Rep2 in data set [2] (setting [7]) is listed as 6.28%. The NFF_Activity result in data set [3] (NFF cells, screen at 5 µg/mL) is “A (active (A) compounds having >25% inhibitory activity)”.

In data set [2] (HTS replicate 1, parasite screen 1 µg/mL), `CC[C@H]1/C=C/C=C/C[C@@H](C)[C@H](O)[C@@](C)(O)C(=O)[C@@H](C)[C@H](O)[C@@H](C)C(=O)[C@@H](C)[C@H](O)[C@@H](C)/C=C/C(=O)O[C@H]2C[C@@]3(CC[C@H](C)[C@H](C[C@@H](C)O)O3)O[C@@H](CC1)[C@H]2C` [Oligomycin D] registered a T.vaginalis_%inb_Rep1 of 14.35%. In addition, in data set [2] (HTS replicate 2, parasite screen 1 µg/mL), the T.vaginalis_%inb_Rep2 is on record as 12.89%. In data set [3], the NFF_Activity entry was “I (key: active (A) compounds having >25% inhibitory activity; otherwise these were reported as inactive (I))”.

As for `CCCC[C@H]1C(=O)O[C@H](C)[C@H](NC(=O)c2cccc(NC=O)c2O)C(=O)O[C@@H](C)[C@@H]1OC(=O)CC(C)C` [BIA-A1444], the T.vaginalis_%inb_Rep1 in data set [2] (setting [8]) came to 12.87%. Moreover, the T.vaginalis_%inb_Rep2 in data set [2] (setting [9]) turned out to be 14.61%. Further, the NFF_Activity entry in data set [3] (setting [10]) is “I (otherwise these were reported as inactive (I))”.

In data set [2] (HTS, parasite screen at 1 µg/mL, replicate 1), `CC1CCCC(O)CCCCCc2cc(O)cc(O)c2C(=O)O1` (stereo not drawn) [Zearalanol, alpha-] yielded a T.vaginalis_%inb_Rep1 of 6.97%. The compound also showed a T.vaginalis_%inb_Rep2 in data set [2] (HTS, parasite screen at 1 µg/mL, replicate 2) of 13.04%. Moreover, in data set [3] (NFF fibroblast screen at 5 µg/mL, A = active, I = inactive), the NFF_Activity entry was “I (otherwise these were reported as inactive (I))”.

In turn, `CC(=O)OC[C@]12CCC(C)=C[C@H]1O[C@@H]1[C@H](O)[C@@H](O)[C@@]2(C)[C@]12CO2` [BIA-A1982] displayed a T.vaginalis_%inb_Rep1 in data set [2] (setting [8]) of 9.02%. In data set [2] (setting [9]), this compound gave a T.vaginalis_%inb_Rep2 of 12.13%. The NFF_Activity entry in data set [3] (setting [10]) is “A (active (A) compounds having >25% inhibitory activity)”.
